Laboratory results taken from ChEMBL document CHEMBL6121065, “Targeting the "Undruggable": Small-Molecule Inhibitors of Proliferating Cell Nuclear Antigen (PCNA) in the Spotlight in Cancer Therapy” (J Med Chem, 2025).

What was measured:
HCT-116 = experiment: Antiproliferative activity against human HCT-116 cells assessed as reduction in cell growth measured for 48 hrs by MTT assay; format: functional, cell-based; details: HCT-116, 48 h
HeLa [1] = experiment: Antiproliferative activity against human HeLa cells assessed as reduction in cell growth measured for 48 hrs by MTT assay; format: functional, cell-based
Jurkat = experiment: Antiproliferative activity against human Jurkat cells assessed as reduction in cell growth measured for 48 hrs by MTT assay; format: functional, cell-based
MCF7 = experiment: Antiproliferative activity against human MCF7 cells assessed as reduction in cell growth measured for 48 hrs by MTT assay; format: functional, cell-based; details: MCF7, 48 h
HepG2 = experiment: Antiproliferative activity against human HepG2 cells assessed as reduction in cell growth measured for 48 hrs by MTT assay; format: functional, cell-based; details: HepG2, 48 h
[2] = target: T1, Proliferating cell nuclear antigen (Homo sapiens, UniProt P12004); experiment: Binding affinity to N-terminal recombinant 6His-tagged PCNA (unknown origin) extracted from Escherichia coli BL21 (DE3) by fluorescence polarization assay
T1 sequence (P12004 whole entry): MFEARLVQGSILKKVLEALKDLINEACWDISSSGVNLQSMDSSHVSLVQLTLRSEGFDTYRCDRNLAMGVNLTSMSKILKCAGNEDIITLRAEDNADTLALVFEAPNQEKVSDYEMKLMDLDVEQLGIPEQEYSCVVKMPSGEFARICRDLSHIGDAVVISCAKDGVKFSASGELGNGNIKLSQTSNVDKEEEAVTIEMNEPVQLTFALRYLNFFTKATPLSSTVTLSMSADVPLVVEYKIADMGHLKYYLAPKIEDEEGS

SK-N-AS [3] = experiment: Antiproliferative activity against human SK-N-AS cells assessed as reduction in cell viability incubated for 72 hrs by cell-titer Glo assay; format: functional, cell-based
SK-N-DZ = experiment: Antiproliferative activity against human SK-N-DZ cells; format: functional, cell-based
[4] = Antiproliferative activity against human SK-N-BE(2)-C cells; format: functional, cell-based
SK-N-AS [5] = experiment: Anticancer activity against human SK-N-AS cells; format: functional, cell-based
[6] = target: T1, Proliferating cell nuclear antigen; experiment: Inhibition of N-terminal 6His-tagged recombinant PCNA (unknown origin) extracted from Escherichia coli BL21 (DE3) by fluorescence based analysis
HeLa [7] = experiment: Antiproliferative activity against human HeLa cells assessed as reduction in cell viability incubated for 72 hrs by MTT assay; format: functional, cell-based
A549 = experiment: Antiproliferative activity against human A549 cells assessed as reduction in cell viability incubated for 72 hrs by MTT assay; format: functional, cell-based; details: A549, 72 h
A673 = experiment: Antiproliferative activity against human A673 cells assessed as reduction in cell viability incubated for 72 hrs by MTT assay; format: functional, cell-based; details: A673, 72 h
SH-SY5Y = experiment: Antiproliferative activity against human SH-SY5Y cells assessed as reduction in cell viability; format: functional, cell-based

SMILES	Ki [2] [nM]	IC50 (SK-N-AS [3]) [µM]	other results
COc1cc(C(=O)N2CCC(N3CCN(C)CC3)CC2)ccc1Nc1ncc2c(n1)N(C)c1ccccc1C(=O)N2C	–	–	IC50 (HCT-116): 9.25 µM; IC50 (HeLa [1]): 13.5 µM; IC50 (Jurkat): 5.9 µM; IC50 (MCF7): 42.8 µM; IC50 (HepG2): 89.1 µM
O=C1CN(C(=O)CCc2cc(I)c(Oc3ccc(O)cc3)c(I)c2)CCN1	> 4810	–	–
O=C(CNC(=O)c1cccc2ccccc12)Nc1ccc(Oc2ccncc2)cc1	–	1.1	–
Cc1noc(C)c1S(=O)(=O)N[C@H](CO)Cc1cc(I)c(Oc2ccc(O)cc2)c(I)c1	150	–	–
CN(C)C(=O)Cc1cc(I)c(Oc2ccc(O)cc2)c(I)c1	720	–	–
O=C(CNC(=O)c1cccc2ccccc12)Nc1ccccc1Oc1cccc(O)c1	–	0.192	IC50 (SK-N-DZ): 539 nM; IC50 [4]: 485 nM
N[C@H](CO)Cc1cc(I)c(Oc2ccc(O)c(I)c2)c(I)c1	60	–	–
O=C(CNC(=O)c1cccc2ccccc12)Nc1cccc(Oc2ccncc2)c1	–	21.6	–
N[C@H](CNC(=O)CO)Cc1cc(I)c(Oc2ccc(O)cc2)c(I)c1	130	–	–
O=C(Nc1ccccc1Oc1ccccc1)c1cccc2ccccc12	–	–	IC50 (SK-N-AS [5]): > 10 µM
COc1ccc(S(=O)(=O)N[C@H](CO)Cc2cc(I)c(Oc3ccc(O)cc3)c(I)c2)cc1	930	–	–
Cc1cc(Oc2c(I)cc(C[C@H](N)CO)cc2I)ccc1O	173	–	–
O=C(CNC(=O)c1cncc2ccccc12)Nc1ccccc1Oc1ccncc1	–	> 30	–
O=C(CNC(=O)c1nccc2ccccc12)Nc1ccc(Oc2ccncc2)cc1	–	> 30	–
NC(=O)CN(Cc1ccc(CO)cc1)C(=O)CNC(=O)CN[C@H](CO)Cc1cc(I)c(Oc2ccc(O)cc2)c(I)c1	–	–	IC50 [6]: 5560 nM
COc1cccc(Oc2ccccc2NC(=O)CNC(=O)c2cccc3ccccc23)c1	–	0.125	IC50 (SK-N-DZ): 288 nM; IC50 [4]: 236 nM
O=C(CNC(=O)c1nccc2ccccc12)Nc1cccc(Oc2ccncc2)c1	–	34	–
O=C(CNC(=O)c1cccc2ccccc12)Nc1ccc(Cl)cc1Oc1ccccc1	–	0.185	IC50 (SK-N-DZ): 447 nM; IC50 [4]: 500 nM
O=C(O)CC[C@H](NC(=O)c1cccc2ccccc12)C(=O)Nc1ccccc1Oc1ccccc1	–	–	IC50 (SK-N-AS [5]): > 10 µM
O=C(CNC(=O)c1cccc2ccccc12)Nc1ccccc1Oc1ccccc1	–	0.1	IC50 (SK-N-DZ): 237 nM; IC50 [4]: 325 nM
CNC(=O)Cc1cc(I)c(Oc2ccc(O)cc2)c(I)c1	780	–	–

SMILES	Ki [2] [nM]	IC50 (SK-N-AS [3]) [µM]	other results
O=C(CCc1cc(I)c(Oc2ccc(O)cc2)c(I)c1)N1CCCCC1	231	–	–
N[C@H](CNC(=O)NC(=O)CCN1CCOCC1)Cc1cc(I)c(Oc2ccc(O)cc2)c(I)c1	110	–	IC50 [6]: 1200 nM
O=C(CNC(=O)c1cncc2ccccc12)Nc1cccc(Oc2ccncc2)c1	–	> 30	–
CC(C)[C@@H](NC(=O)c1cccc2ccccc12)C(=O)Nc1ccccc1Oc1ccccc1	–	–	IC50 (SK-N-AS [5]): > 10 µM
O=C(CNC(=O)c1cncc2ccccc12)Nc1ccc(Oc2ccncc2)cc1	–	> 30	–
COc1ccc(Oc2c(I)cc(CCC(=O)N3CCCCC3)cc2I)cc1	910	–	–
CS(=O)(=O)NC(=O)Cc1cc(I)c(Oc2ccc(O)cc2)c(I)c1	870	–	–
COc1ccc(Oc2c(I)cc(CCC(=O)NS(C)(=O)=O)cc2I)cc1	> 4810	–	–
O=C(CCNC(=O)c1cccc2ccccc12)Nc1ccccc1Oc1ccccc1	–	–	IC50 (SK-N-AS [5]): > 10 µM
O=C(CNC(=O)c1cncc2ccccc12)Nc1ccccc1Oc1ccccc1	–	> 30	–
NC(=O)CN(Cc1ccc(O)cc1)C(=O)CN(CCO)C(=O)CN[C@H](CO)Cc1cc(I)c(Oc2ccc(O)cc2)c(I)c1	40	–	–
CS(=O)(=O)NC(=O)CCc1cc(I)c(Oc2ccc(O)cc2)c(I)c1	1920	–	–
O=C(Cc1cc(I)c(Oc2ccc(O)cc2)c(I)c1)N1CCOCC1	600	–	–
NCCCC[C@H](NC(=O)c1cccc2ccccc12)C(=O)Nc1ccccc1Oc1ccccc1	–	–	IC50 (SK-N-AS [5]): > 10 µM
COc1cccc(Oc2ccccc2NC(=O)[C@H](C)NC(=O)c2cccc3ccccc23)c1	–	–	IC50 (SK-N-AS [5]): > 10 µM
O=C(CNC(=O)c1cccc2ccccc12)Nc1c(Cl)cccc1Oc1ccccc1	–	> 10	IC50 (SK-N-DZ): > 10000 nM; IC50 [4]: > 10000 nM
O=C(O)CC[C@@H](NC(=O)c1cccc2ccccc12)C(=O)Nc1ccccc1Oc1ccccc1	–	–	IC50 (SK-N-AS [5]): > 10 µM
COc1cccc(Oc2ccccc2NC(=O)CNC(=O)c2ccc(-c3ccccc3)cc2)c1	–	> 10	–
NC(=O)CN(Cc1ccc2c(c1)OCO2)C(=O)CN(CCO)C(=O)CN[C@H](CO)Cc1cc(I)c(Oc2ccc(O)cc2)c(I)c1	170	–	–
NCc1ccc(CN(CC(N)=O)C(=O)CN(CCO)C(=O)CN[C@H](CO)Cc2cc(I)c(Oc3ccc(O)cc3)c(I)c2)cc1	114	–	IC50 [6]: 1180 nM
O=C(CNC(=O)c1cccc2ccccc12)Nc1ccccc1Oc1ccncc1	–	> 50	–

SMILES	Ki [2] [nM]	IC50 (SK-N-AS [3]) [µM]	other results
NC[C@@H](N)Cc1cc(I)c(Oc2ccc(O)cc2)c(I)c1	240	–	–
CCNC(=O)Cc1cc(I)c(Oc2ccc(O)cc2)c(I)c1	630	–	–
O=S(=O)(N[C@H](CO)Cc1cc(I)c(Oc2ccc(O)cc2)c(I)c1)c1ccccc1	570	–	–
COc1ccc(Oc2ccccc2NC(=O)CNC(=O)c2cccc3ccccc23)cc1	–	0.091	IC50 (SK-N-DZ): 271 nM; IC50 [4]: 234 nM
O=C(CNC(=O)c1cccc2ccccc12)Nc1ccccc1Oc1ccc(O)cc1	–	0.156	IC50 (SK-N-DZ): 467 nM; IC50 [4]: 490 nM
COc1cccc(Oc2ccccc2NC(=O)CNC(=O)CCc2cccc3ccccc23)c1	–	> 10	–
COc1cccc(Oc2ccccc2NC(=O)CNC(=O)Cc2cccc3ccccc23)c1	–	> 10	–
O=C(CNC(=O)c1nccc2ccccc12)Nc1ccccc1Oc1ccccc1	–	35	–
O=S(=O)(N[C@H](CO)Cc1cc(I)c(Oc2ccc(O)cc2)c(I)c1)c1ccc(O)cc1	3080	–	–
O=C(CNC(=O)c1nccc2ccccc12)Nc1ccccc1Oc1ccncc1	–	42	–
CC(C)[C@H](NC(=O)c1cccc2ccccc12)C(=O)Nc1ccccc1Oc1ccccc1	–	–	IC50 (SK-N-AS [5]): > 10 µM
O=C1CN(C(=O)Cc2cc(I)c(Oc3ccc(O)cc3)c(I)c2)CCN1	870	–	–
COc1cccc(Oc2ccccc2NC(=O)CNC(=O)c2c(C)cc(C)cc2C)c1	–	–	IC50 (HeLa [7]): 6.5 µM; IC50 (A549): 4.7 µM; IC50 (A673): 5.5 µM
C[C@H](NC(=O)c1cccc2ccccc12)C(=O)Nc1ccccc1Oc1ccccc1	–	–	IC50 (SH-SY5Y): 4 µM
O=C1NC[C@H](Cc2cc(I)c(Oc3ccc(O)cc3)c(I)c2)N1	540	–	–
CNC(=O)CCc1cc(I)c(Oc2ccc(OC)cc2)c(I)c1	1630	–	–
O=C(CNC(=O)c1cccc2ccccc12)Nc1ccccc1Cc1ccccc1	–	1.1	–
NCCCC[C@@H](NC(=O)c1cccc2ccccc12)C(=O)Nc1ccccc1Oc1ccccc1	–	–	IC50 (SK-N-AS [5]): > 10 µM
N[C@H](CNC(=O)NCc1ccccc1)Cc1cc(I)c(Oc2ccc(O)cc2)c(I)c1	10	–	–
CCCCCCNC(=O)NC[C@@H](N)Cc1cc(I)c(Oc2ccc(O)cc2)c(I)c1	120	–	–
